Assay results from patent US9968616B2, “Discovery of FDA-approved drugs as inhibitors of fatty acid binding protein 4 using molecular docking screening” (The Chinese University of Hong Kong, priority 2014, dated 2018).

Assays:
[1] = test system: 3T3-L1 cells; experiment: Adipolysis assay (glycerol release) in 3T3-L1 cells; assay type: cell-based, Mouse; conditions: 10 μM, FIG. 3B; for isoproterenol-stimulated adipolysis: isoproterenol 100 nM for 24 hours
Description: Mouse 3T3-L1 pre-adipocytes were cultured in Dulbecco's Modified Eagle's Medium (DMEM) supplemented with 10% fetal bovine serum, 100 units/ml penicillin and 100 μg/ml streptomycin at 37° C. in a humidified 95% air and 5% CO2 atmosphere. All cell culture reagents were purchased from Invitrogen (Carlsbad, Calif., USA). To initiate 3T3-L1 adipocyte differentiations, the standard differentiation cocktail (250 nM dexamethasone, 100 mM 3-isobutyl-1-methylxanthine and 175 nM human insulin, all purchased from Sigma, St. Louis, Mo.) was added to the medium after 2 days post-confluence. After 2 days, the medium was replaced with fresh complete medium containing insulin. Culture medium was changed every 2 days. Levofloxacin or benzbromarone (BBR) (Sigma, St. Louis, Mo.) was dissolved in DMSO and added to the medium at the beginning of pre-adipocyte differentiations. […] Confluent 3T3-L1 pre-adipocytes (day 0) were stimulated by the differentiation cocktail and cultured for 2 days with culture medium (Control), 10 μM of levofloxacin (Levofloxacin) or 10 μM benzbromarone (BBR). At day 2, the culture medium was collected and the extent of adipolysis was evaluated using Adipolysis Assay Kit (Cayman Chemical: 10009381, MI, US). During adipolysis, triglycerides are hydrolysed to release free fatty acids and glycerol. The amount of glycerol released into the medium as measured by the kit is proportional to the degree of adipolysis. Basal adipolysis and isoproterenol-induced adipolysis were studied. Isoproterenol was included as a positive control for screening pharmaceuticals that are known to regulate the adipolysis. Cells were treated with 100 nM of isoproterenol for 24 hours after the treatment with culture medium, levofloxacin or benzbromarone. Results were repeated at least three times from three independent experiments and presented as mean±SD, n=3 (FIG. 3B). The results were statistically analyzed by one-way ANOVA test. *, P<0.05; compared with the control group. #, P<0.05; compared with the isoproterenol-treated group.

[2] = test system: 3T3-L1 cells; conditions: 10 μM, reference 31; cited from earlier work
[3] = test system: 3T3-L1 cells; experiment: Cell viability (MTT assay); assay type: cell-based, Mouse; conditions: 10 μM, regardless of the isoproterenol treatment, FIG. 3C
[4] = target: human FABP4 (Homo sapiens, UniProt P15090); experiment: FABP4 Inhibitor/Ligand Screening Assay Kit, cell-free ligand displacement fluorescence-labeled probe assay; assay type: binding; conditions: for inhibition at 10 µM: read-out: % FABP4 inhibition (10 μM)
[5] = test system: PPARγ; experiment: Western blot detection of PPARγ protein level in 3T3-L1 cells; assay type: cell-based, Mouse; conditions: 10 μM, Day 6, cell lysate, FIG. 3E
Description: Mouse 3T3-L1 pre-adipocytes were cultured in Dulbecco's Modified Eagle's Medium (DMEM) supplemented with 10% fetal bovine serum, 100 units/ml penicillin and 100 μg/ml streptomycin at 37° C. in a humidified 95% air and 5% CO2 atmosphere. All cell culture reagents were purchased from Invitrogen (Carlsbad, Calif., USA). To initiate 3T3-L1 adipocyte differentiations, the standard differentiation cocktail (250 nM dexamethasone, 100 mM 3-isobutyl-1-methylxanthine and 175 nM human insulin, all purchased from Sigma, St. Louis, Mo.) was added to the medium after 2 days post-confluence. After 2 days, the medium was replaced with fresh complete medium containing insulin. Culture medium was changed every 2 days. Levofloxacin or benzbromarone (BBR) (Sigma, St. Louis, Mo.) was dissolved in DMSO and added to the medium at the beginning of pre-adipocyte differentiations.
As in the above Oil Red O Staining assay, cells were harvested on Day 6 and the total protein was collected for western blotting to estimate the PPARγ protein level in the treated 3T3-L1 cells. […] Specific bands were detected using […] (BCIP) and nitro blue tetrazolium (NBT) system (Bio-Rad, Hercules, Calif.) and photographed (FIG. 3E). […]

[6] = test system: 3T3-L1 cells; experiment: Oil Red O staining (induction of adipogenesis); assay type: cell-based, Mouse; conditions: 10 μM, days 0-6 of differentiation, versus control group, FIG. 3D

human FABP4, sequence (P15090 whole entry): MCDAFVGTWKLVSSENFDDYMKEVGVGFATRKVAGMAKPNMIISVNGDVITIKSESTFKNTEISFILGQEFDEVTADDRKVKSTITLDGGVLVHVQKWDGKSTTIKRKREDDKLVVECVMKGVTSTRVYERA

Compound	basal adipolysis [1]	isoproterenol-stimulated adipolysis [1]	proliferation/viability of 3T3-L1 cells (cytotoxicity) [3]	inhibition at 10 µM [4]	further results
CCc1oc2ccccc2c1C(=O)c1cc(Br)c(O)c(Br)c1 [BBR, benzbromarone]	inhibitory effects were also observed	inhibitory effects were also observed	not affected	–	adipolysis (literature report) [2]: inhibits the adipolysis
Cc1nc2n(c(=O)c1CCN1CCC(c3noc4cc(F)ccc34)CC1)CCCC2O (stereo not drawn) [Paliperidone]	–	–	–	5.12 ± 6.9%	–
N[C@@H]1[C@H]2CN(c3nc4c(cc3F)c(=O)c(C(=O)O)cn4-c3ccc(F)cc3F)C[C@@H]12 [Trovafloxacin]	–	–	–	57.5 ± 12.2%	–
Cc1nc2n(c(=O)c1CCN1CCC(c3noc4cc(F)ccc34)CC1)CCCC2 [Risperidone]	–	–	–	1.64 ± 12.9%	–
O=c1[nH]c2ccccc2n1C1CCN(CCCC(c2ccc(F)cc2)c2ccc(F)cc2)CC1 [Pimozide]	–	–	–	47 ± 11.3%	–
C[C@H]1COc2c(N3CCN(C)CC3)c(F)cc3c(=O)c(C(=O)O)cn1c23 [Levofloxacin, (S)-9-fluoro-2,3-dihydro-3-methyl-10-(4-methylpiperazin-1-yl)-7-oxo-7H-pyrido[1,2,3-de]-1,4-benzoxazine-6-carboxylic acid]	inhibited	inhibited	not affected	70 ± 12.2%	protein expression of PPARγ [5]: did not increase; lipid accumulation (red dots, Oil Red O) [6]: did not promote lipid accumulation; IC50 ([4]; dose-response, Prism 5, read-out: IC50 FABP4 activity inhibition): 5.83 µM
